Data set [1] concerns the target T1, Glucocorticoid receptor (Homo sapiens, UniProt P04150).
T1 sequence (P04150 whole entry): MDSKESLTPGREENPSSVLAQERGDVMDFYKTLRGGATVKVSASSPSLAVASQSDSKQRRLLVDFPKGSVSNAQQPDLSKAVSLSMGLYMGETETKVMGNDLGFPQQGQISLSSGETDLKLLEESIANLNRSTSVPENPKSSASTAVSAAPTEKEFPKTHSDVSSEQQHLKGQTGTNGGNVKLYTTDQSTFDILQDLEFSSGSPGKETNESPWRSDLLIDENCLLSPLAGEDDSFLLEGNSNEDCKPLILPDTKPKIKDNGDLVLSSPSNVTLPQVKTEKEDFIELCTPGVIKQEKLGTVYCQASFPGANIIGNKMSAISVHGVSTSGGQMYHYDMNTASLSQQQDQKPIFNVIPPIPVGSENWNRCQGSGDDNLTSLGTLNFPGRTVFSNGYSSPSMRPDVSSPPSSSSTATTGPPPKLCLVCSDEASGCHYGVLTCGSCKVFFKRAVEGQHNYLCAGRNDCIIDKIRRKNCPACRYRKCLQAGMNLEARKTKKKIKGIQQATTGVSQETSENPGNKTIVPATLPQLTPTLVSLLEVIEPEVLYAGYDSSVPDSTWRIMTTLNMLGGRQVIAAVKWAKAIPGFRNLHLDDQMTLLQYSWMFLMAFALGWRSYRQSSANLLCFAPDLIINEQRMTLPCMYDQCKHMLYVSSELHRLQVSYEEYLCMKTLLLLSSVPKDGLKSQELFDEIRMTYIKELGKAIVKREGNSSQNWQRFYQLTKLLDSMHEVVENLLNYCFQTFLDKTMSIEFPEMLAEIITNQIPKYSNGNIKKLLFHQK
The experiment in a line: Antagonist activity at glucocorticoid receptor LBD expressed in human HUH7 cells coexpressing GAL4 by luciferase reporter gene assay. The format is functional, cell-based, Huh-7. (In general: A reporter such as luciferase makes a cellular process visible.)

Data set [2] has as its target T2, Progesterone receptor (Homo sapiens, UniProt P06401).
T2 sequence (P06401 whole entry): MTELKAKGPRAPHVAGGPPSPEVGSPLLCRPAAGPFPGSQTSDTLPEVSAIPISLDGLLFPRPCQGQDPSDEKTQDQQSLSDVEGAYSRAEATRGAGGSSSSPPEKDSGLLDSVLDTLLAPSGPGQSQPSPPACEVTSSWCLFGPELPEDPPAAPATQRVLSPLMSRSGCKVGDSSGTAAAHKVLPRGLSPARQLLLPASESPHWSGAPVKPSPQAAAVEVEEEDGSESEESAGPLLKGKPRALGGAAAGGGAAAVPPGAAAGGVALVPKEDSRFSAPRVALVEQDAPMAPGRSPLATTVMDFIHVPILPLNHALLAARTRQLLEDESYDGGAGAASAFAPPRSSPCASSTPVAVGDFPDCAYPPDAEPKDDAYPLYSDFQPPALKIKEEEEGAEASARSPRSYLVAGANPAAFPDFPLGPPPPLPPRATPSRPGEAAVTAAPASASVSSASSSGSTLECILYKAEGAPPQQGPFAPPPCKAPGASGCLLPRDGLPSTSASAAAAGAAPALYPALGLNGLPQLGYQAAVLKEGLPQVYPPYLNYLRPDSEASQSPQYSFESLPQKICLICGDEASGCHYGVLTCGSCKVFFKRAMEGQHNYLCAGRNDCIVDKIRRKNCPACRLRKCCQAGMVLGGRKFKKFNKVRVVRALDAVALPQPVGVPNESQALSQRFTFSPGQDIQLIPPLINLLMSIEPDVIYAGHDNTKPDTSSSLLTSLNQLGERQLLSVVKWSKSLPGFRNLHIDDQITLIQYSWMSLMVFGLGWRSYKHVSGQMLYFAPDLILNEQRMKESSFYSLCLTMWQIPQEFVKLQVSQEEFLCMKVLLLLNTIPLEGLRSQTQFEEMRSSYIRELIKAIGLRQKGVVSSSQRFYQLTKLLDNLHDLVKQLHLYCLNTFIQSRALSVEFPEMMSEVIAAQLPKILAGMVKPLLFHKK
The data set is described as follows: Antagonist activity at progesterone receptor LBD expressed in human HUH7 cells coexpressing GAL4 by luciferase reporter gene assay. The format is functional, cell-based, Huh-7.

For data set [3], the system named is Liver microsomes. The data set is described as follows: Metabolic stability in human liver microsomes assessed as compound remaining. Also: time not given here. Format: ADME, Microsome. Background: Liver microsomes are vesicles of endoplasmic reticulum, rich in cytochrome P450 enzymes.
The subject of data set [4] is Liver microsomes. The data set is described as follows: Metabolic stability in rat liver microsomes assessed as compound remaining. Also: time not given here. Format: ADME, Microsome.
The target in data set [5] is Cytochrome P450 3A4 (Homo sapiens, UniProt P08684). The experiment in a line: Inhibition of CYP3A4. The format is ADME.
The target in data set [6] is Cytochrome P450 2C9 (Homo sapiens, UniProt P11712). The data set is described as follows: Inhibition of CYP2C9. Format: ADME.
The target of data set [7] is Cytochrome P450 2D6 (Homo sapiens, UniProt P10635). The experiment in a line: Inhibition of CYP2D6. The format is ADME.
Data set [8] is described as follows: Solubility of the compound. The format is physicochemical.
The target of data set [9] is T3, Mineralocorticoid receptor (Homo sapiens, UniProt P08235).
T3 sequence (P08235 whole entry): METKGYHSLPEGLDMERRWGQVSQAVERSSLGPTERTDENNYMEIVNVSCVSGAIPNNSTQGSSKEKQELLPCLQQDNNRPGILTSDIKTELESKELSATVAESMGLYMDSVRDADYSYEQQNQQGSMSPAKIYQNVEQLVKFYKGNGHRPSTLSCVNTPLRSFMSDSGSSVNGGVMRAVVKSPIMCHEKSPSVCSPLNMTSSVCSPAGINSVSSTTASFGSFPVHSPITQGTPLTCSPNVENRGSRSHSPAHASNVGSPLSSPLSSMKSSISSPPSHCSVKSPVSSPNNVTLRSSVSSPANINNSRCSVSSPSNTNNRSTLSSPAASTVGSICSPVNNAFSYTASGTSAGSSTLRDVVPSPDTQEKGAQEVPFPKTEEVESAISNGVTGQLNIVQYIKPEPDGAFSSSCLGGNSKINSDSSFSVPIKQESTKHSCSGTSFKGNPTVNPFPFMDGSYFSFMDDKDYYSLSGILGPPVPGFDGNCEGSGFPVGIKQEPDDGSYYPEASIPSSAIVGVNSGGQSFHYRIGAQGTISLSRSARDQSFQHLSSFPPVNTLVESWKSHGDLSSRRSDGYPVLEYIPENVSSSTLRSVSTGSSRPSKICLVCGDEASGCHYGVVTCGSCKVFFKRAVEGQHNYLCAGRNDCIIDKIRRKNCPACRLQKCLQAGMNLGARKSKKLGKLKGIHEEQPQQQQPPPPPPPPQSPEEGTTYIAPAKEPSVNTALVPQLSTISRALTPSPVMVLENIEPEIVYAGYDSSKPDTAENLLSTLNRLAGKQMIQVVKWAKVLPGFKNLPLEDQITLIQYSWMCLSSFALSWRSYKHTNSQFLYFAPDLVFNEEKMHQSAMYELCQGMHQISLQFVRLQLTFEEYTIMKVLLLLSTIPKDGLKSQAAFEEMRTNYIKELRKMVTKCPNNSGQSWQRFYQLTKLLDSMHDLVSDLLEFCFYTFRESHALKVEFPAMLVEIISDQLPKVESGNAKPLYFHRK
Description: Antagonist activity at mineralocorticoid receptor LBD expressed in human HUH7 cells coexpressing GAL4 by luciferase reporter gene assay

SMILES strings stand for the structures. Converted amounts (≈) assume the structure as drawn.

By IC50 is commonly meant the concentration needed to halve the response being measured. Low readings indicate higher potency, high ones lower potency. The solubility is the concentration that dissolves in the medium under given conditions.

Sequence of Cytochrome P450 2D6 (P10635 whole entry): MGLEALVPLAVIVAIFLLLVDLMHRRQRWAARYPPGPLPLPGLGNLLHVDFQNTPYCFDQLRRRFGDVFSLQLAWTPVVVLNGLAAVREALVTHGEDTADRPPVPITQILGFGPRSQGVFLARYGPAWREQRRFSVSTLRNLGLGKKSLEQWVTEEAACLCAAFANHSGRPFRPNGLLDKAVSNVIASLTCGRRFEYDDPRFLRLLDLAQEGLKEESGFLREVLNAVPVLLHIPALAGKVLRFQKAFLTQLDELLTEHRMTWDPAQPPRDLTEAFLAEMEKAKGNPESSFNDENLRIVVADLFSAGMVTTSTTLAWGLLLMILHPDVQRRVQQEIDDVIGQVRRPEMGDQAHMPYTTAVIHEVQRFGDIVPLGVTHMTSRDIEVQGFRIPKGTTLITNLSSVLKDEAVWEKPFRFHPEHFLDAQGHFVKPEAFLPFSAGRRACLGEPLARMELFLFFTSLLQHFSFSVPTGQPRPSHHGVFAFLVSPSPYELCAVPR
Sequence of Cytochrome P450 3A4 (P08684 whole entry): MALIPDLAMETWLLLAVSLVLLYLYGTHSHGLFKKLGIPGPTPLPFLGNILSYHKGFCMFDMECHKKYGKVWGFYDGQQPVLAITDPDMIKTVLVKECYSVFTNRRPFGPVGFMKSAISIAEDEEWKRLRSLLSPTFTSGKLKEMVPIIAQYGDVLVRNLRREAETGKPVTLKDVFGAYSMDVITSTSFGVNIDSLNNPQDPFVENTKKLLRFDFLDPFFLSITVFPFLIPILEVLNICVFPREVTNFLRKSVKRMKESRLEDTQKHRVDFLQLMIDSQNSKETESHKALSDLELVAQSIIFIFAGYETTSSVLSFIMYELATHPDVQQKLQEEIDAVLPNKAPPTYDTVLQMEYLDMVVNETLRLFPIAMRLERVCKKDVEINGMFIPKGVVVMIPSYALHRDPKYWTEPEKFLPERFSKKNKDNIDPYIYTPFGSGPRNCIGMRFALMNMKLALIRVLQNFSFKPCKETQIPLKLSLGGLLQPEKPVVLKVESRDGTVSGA
Sequence of Cytochrome P450 2C9 (P11712 whole entry): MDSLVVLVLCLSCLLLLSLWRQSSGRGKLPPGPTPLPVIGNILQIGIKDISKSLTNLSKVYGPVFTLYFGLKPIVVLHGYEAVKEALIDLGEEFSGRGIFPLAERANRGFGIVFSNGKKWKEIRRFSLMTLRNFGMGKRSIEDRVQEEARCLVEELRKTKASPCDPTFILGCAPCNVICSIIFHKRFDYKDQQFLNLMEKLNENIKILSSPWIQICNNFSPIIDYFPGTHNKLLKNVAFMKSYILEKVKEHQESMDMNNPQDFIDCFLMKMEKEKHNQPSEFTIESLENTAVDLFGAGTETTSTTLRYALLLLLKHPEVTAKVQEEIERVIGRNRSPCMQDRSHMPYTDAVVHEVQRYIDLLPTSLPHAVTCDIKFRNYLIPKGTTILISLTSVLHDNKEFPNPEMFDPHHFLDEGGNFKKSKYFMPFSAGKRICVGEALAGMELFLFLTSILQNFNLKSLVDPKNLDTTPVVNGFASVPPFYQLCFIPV

For `COC(=O)C1=C(Cn2cncn2)NC(C)=C(C#N)C1c1ccc(F)cc1Cl` (stereo not given), the IC50 in data set [1] is 2900 nM; in data set [2], 7000 nM; in [5] it was 800 nM; in [6] it was 100 nM; in data set [7], > 10000 nM; in data set [9], 123 nM. Also, the Stability is reported as 9% in data set [3] and 34% in data set [4]. Moreover, the solubility in [8] is > 5 µM.
In the case of `COC(=O)C1=C(C)NC(C)=C(C#N)C1c1ccc(F)cc1Cl` (stereo not given), the IC50 in [1] worked out at 5100 nM; in data set [2] it was 900 nM; in [9], 92 nM. For the same molecule, the Stability was found to be 37% in data set [3] and 14% in data set [4]. Also, the “inhibition (INH)” value in [5] was found to be 40%; in data set [6], 44%; in data set [7], 0%. The amount in solution in data set [8] (solubility) came to 10 µM (≈ 3.21 µg/mL).
Consider `COC(=O)C1=C(Cn2ccnc2)NC(C)=C(C#N)C1c1ccc(F)cc1Cl` (stereo not given), for which the IC50 in [1] is 2200 nM; in data set [2], > 10000 nM; in data set [5], 200 nM; in [6], 1000 nM; in data set [7], > 10000 nM; in [9], 9 nM. For the same molecule, the figures for the Stability in data set [3] and in [4] were 8% and 64%, respectively. Further, the solubility in [8] was determined as 5 µM (≈ 1.93 µg/mL).
In the case of `CCCC1=C(C(=O)OC)C(c2ccccc2Cl)C(C#N)=C(C)N1` (stereo not given), the IC50 was 1600 nM in data set [1], 200 nM in data set [2] and 64 nM in [9]. For the same molecule, the Stability is 36% in [3] and 13% in [4]. Besides, the “inhibition (INH)” value in data set [5] is listed as 71%; in [6], 83%; in data set [7], 19%. Further, the solubility in data set [8] is < 5 µM.
As for `COC(=O)C1=C(Cn2cnnn2)NC(C)=C(C#N)C1c1ccc(F)cc1Cl` (stereo not given), the IC50 was 1300 nM in data set [1]; > 10000 nM in data set [2]; 1200 nM in data set [5]; 1900 nM in [6]; > 10000 nM in [7]; 64 nM in data set [9]. The values for the Stability in [3] and in data set [4] were 3% and 60%, respectively. In [8], this molecule showed a solubility of 31 µM (≈ 12.1 µg/mL).
